ChEMBL document CHEMBL2203000, “Discovery of AC710, a Globally Selective Inhibitor of Platelet-Derived Growth Factor Receptor-Family Kinases” (ACS Med Chem Lett, 2012)
The source made the active and inactive calls. The calls are words filed in the database; no cut-off is given here.

Columns and labels:
[1] = (§1) Oral bioavailability in Sprague-Dawley rat plasma at 10 mg/kg by LC-MS/MS analysis; assay type: ADME, organism-based; conditions: Sprague-Dawley, plasma
[2] = Clearance in Sprague-Dawley rat plasma at 1 mg/kg, iv and 10 mg/kg, po by LC-MS/MS analysis; assay type: ADME, organism-based
[3] = (§2) AUC in Sprague-Dawley rat plasma at 10 mg/kg, po by LC-MS/MS analysis; assay type: ADME, organism-based; parameters: dose 10 mg/kg, route oral; conditions: Sprague-Dawley, plasma
Rattus norvegicus [4] = assay: as §1; assay type: ADME, organism-based; conditions: in vivo
Rattus norvegicus [5] = assay: as §2; assay type: ADME, organism-based; parameters: dose 10 mg/kg, route oral; conditions: in vivo
MV4-11 [6] = assay: Antitumor activity against human MV4-11 cells xenografted in SCID mouse assessed as complete reduction in tumor volume at 3 to 30 mg/kg for 2 weeks; assay type: functional, organism-based
Mus musculus [7] = assay: Antiarthritic activity in po dosed collagen-induced arthritis mouse assessed as decrease in paw clinical scores administered for 15 days; assay type: functional, organism-based
Mus musculus [8] = assay: Antiarthritic activity in collagen-induced arthritis mouse assessed as decrease in joint swelling and inflammation at 10 to 30 mg/kg, po for 15 days; assay type: functional, organism-based
NFS-60 = assay: Antitumor activity against mouse M-NFS-60 cells xenografted in CD-1 nude mouse assessed as inhibition of tumor growth measured after 4 days of tumor implantation; assay type: functional, cell-based
MV4-11 [9] = assay: Antitumor activity against human MV4-11 cells xenografted in SCID mouse assessed as reduction in tumor volume at 0.3 mg/kg for 2 weeks; assay type: functional, organism-based; parameters: dose 0.3 mg/kg
Mus musculus [10] = assay: Toxicity in human MV4-11 cells xenografted in SCID mouse assessed as change in body weight at 0.3 to 30 mg/kg foe 2 weeks; assay type: organism-based; parameters: dose 0.3-30 mg/kg; conditions: in vivo, 336 h
Cytochrome P450 1A2 [11] = molecular target: T1, Cytochrome P450 1A2 (Homo sapiens, UniProt P05177); assay: Induction of CYP1A2 at 3 to 30 uM; assay type: ADME
T1 sequence (P05177 whole entry): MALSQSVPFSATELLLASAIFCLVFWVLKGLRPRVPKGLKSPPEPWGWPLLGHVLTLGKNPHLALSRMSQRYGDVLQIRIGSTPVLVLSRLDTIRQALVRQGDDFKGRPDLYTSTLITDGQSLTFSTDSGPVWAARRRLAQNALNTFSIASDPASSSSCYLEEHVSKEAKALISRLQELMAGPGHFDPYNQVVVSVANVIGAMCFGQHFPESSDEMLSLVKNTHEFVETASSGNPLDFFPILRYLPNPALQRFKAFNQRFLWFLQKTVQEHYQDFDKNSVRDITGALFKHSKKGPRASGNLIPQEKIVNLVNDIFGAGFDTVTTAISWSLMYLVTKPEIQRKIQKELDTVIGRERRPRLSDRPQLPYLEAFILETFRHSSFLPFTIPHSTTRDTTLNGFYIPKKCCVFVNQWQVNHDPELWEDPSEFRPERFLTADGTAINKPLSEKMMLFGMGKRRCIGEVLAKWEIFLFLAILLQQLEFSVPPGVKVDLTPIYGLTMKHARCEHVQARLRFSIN

[12] = molecular target: Platelet-derived growth factor receptor alpha (Homo sapiens, UniProt P16234); assay: Binding affinity to PDGFRalpha expressed in HEK-293 cells; assay type: cell-based, HEK293
Cytochrome P450 3A4 = Cytochrome P450 3A4 (Homo sapiens, UniProt P08684); assay: Induction of CYP3A4 at 3 to 30 uM; assay type: ADME
[13] = AUC in po dosed CD-1 mouse by LC-MS/MS analysis; assay type: ADME, organism-based; conditions: plasma
[14] = Antitumor activity against mouse M-NFS-60 cells xenografted in CD-1 nude mouse assessed as inhibition of tumor growth at 30 mg/kg, po measured after 4 of tumor implantation; assay type: functional; conditions: read-out: TGI
Rattus norvegicus [15] = assay: Toxicity in rat at 200 mg/kg administered for 7 days; assay type: organism-based; parameters: dose 200 mg/kg; conditions: in vivo, 168 h
Rattus norvegicus [16] = assay: Toxicity in rat assessed as diarrhea at 800 mg/kg administered for 7 days; assay type: organism-based; parameters: dose 800 mg/kg; conditions: in vivo, 168 h
Cytochrome P450 2C9 = Cytochrome P450 2C9 (Homo sapiens, UniProt P11712); assay: Inhibition of CYP2C9; assay type: ADME
Rattus norvegicus [17] = assay: Toxicity in rat assessed as mortality at 800 mg/kg administered for 7 days; assay type: organism-based; parameters: dose 800 mg/kg; conditions: in vivo, 168 h
[18] = molecular target: T2, Platelet-derived growth factor receptor beta (Homo sapiens, UniProt P09619); assay: Binding affinity to PDGFRbeta expressed in HEK-293 cells; assay type: cell-based, HEK293
[19] = Antitumor activity against mouse M-NFS-60 cells xenografted in CD-1 nude mouse assessed as inhibition of tumor growth at 10 mg/kg, po measured after 4 of tumor implantation; assay type: functional; conditions: read-out: TGI
[20] = molecular target: T3, Mast/stem cell growth factor receptor Kit (Homo sapiens, UniProt P10721); assay: Inhibition of KIT phosphorylation in human H526 cells; assay type: cell-based
[21] = molecular target: T3, Mast/stem cell growth factor receptor Kit; assay: Binding affinity to KIT expressed in HEK-293 cells; assay type: cell-based, HEK293
Cytochrome P450 2C19 = Cytochrome P450 2C19 (Homo sapiens, UniProt P33261); assay: Inhibition of CYP2C19; assay type: ADME
Mus musculus [22] = assay: Toxicity in collagen-induced arthritis mouse assessed as body weight and body condition at 3 to 30 mg/kg for 15 days; assay type: organism-based; parameters: dose 3-30 mg/kg; conditions: in vivo, 360 h
[23] = molecular target: T4, Macrophage colony-stimulating factor 1 receptor (Homo sapiens, UniProt P07333); assay: Inhibition of M-CSF-induced […] -fussed CSF1R phosphorylation expressed in HEK293 cells after 2 hrs by sandwich ELISA; assay type: cell-based
[24] = molecular target: T5, Receptor-type tyrosine-protein kinase FLT3 (Homo sapiens, UniProt P36888); assay: Inhibition of FLT3 phosphorylation in human MV4-11 cells; assay type: cell-based
T5 sequence (P36888 whole entry): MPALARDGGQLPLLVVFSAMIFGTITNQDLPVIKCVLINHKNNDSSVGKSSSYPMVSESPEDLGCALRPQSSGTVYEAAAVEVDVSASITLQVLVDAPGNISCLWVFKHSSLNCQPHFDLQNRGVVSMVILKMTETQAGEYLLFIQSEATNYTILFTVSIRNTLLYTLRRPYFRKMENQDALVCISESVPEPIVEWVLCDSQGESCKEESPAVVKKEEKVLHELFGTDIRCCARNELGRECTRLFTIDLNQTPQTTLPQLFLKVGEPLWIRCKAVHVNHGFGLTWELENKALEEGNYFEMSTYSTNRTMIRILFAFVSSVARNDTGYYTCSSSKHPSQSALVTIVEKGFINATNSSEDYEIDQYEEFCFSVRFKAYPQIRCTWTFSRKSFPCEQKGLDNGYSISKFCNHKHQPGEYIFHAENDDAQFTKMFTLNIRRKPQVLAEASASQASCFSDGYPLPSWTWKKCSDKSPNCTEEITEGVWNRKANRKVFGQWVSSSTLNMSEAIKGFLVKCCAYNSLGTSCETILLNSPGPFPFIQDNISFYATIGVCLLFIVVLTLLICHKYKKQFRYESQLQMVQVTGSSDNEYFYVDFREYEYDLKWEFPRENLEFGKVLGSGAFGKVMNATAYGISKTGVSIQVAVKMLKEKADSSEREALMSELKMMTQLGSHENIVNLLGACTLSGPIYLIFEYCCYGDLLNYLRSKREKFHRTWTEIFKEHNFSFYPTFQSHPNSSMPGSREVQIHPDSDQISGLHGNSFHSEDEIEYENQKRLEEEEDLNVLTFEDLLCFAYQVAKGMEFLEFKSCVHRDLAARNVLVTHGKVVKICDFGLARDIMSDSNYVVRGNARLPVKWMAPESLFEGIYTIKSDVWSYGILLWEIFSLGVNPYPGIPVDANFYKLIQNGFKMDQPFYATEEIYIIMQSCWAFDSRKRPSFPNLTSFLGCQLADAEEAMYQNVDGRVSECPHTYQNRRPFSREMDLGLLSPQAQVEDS

Cytochrome P450 2D6 [25] = molecular target: T6, Cytochrome P450 2D6 (Homo sapiens, UniProt P10635); assay: Inhibition of CYP2D6; assay type: ADME
[26] = molecular target: T5, Receptor-type tyrosine-protein kinase FLT3; assay: Binding affinity to FLT3 expressed in HEK-293 cells after 1 hr; assay type: cell-based, HEK293
[27] = molecular target: T4, Macrophage colony-stimulating factor 1 receptor; assay: Binding affinity to CSF1R expressed in HEK-293 cells after 1 hr; assay type: cell-based, HEK293
[28] = Antitumor activity against mouse M-NFS-60 cells xenografted in CD-1 nude mouse assessed as inhibition of tumor growth at 3 mg/kg, po measured after 4 of tumor implantation; assay type: functional; conditions: read-out: TGI
[29] = molecular target: T2, Platelet-derived growth factor receptor beta; assay: Inhibition of PDGFRbeta phosphorylation in human MG63 cells; assay type: cell-based, MG-63
Target sequence in this assay (P09619 whole entry, looked up): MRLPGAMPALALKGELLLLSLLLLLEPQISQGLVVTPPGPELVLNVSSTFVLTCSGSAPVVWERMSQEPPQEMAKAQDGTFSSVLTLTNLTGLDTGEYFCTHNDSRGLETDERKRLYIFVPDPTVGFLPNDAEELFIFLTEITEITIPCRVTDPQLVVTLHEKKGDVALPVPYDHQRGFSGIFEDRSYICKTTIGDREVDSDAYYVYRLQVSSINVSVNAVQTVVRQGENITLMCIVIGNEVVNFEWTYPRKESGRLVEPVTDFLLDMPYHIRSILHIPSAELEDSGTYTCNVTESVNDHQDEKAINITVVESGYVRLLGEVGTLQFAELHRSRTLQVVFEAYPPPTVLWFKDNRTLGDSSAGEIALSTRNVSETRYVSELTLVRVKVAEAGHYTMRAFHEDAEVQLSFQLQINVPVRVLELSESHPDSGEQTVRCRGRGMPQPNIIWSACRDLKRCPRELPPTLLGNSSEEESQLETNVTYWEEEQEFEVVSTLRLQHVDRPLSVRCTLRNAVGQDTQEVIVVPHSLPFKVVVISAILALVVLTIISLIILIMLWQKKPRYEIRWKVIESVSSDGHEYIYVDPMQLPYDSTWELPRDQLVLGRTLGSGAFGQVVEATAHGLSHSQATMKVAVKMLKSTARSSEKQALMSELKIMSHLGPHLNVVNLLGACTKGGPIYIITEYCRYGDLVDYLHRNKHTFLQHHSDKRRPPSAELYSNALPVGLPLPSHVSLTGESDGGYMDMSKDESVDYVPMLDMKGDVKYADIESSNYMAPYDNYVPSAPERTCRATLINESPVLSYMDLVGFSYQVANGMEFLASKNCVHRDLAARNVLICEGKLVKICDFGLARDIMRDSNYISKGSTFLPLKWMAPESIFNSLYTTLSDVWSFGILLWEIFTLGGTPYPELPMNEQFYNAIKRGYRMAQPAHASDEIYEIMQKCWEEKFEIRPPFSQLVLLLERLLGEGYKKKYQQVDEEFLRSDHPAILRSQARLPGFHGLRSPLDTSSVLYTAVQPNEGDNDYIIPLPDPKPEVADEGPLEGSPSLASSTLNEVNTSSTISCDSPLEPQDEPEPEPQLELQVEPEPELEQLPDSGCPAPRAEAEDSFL

Cytochrome P450 2D6 [30] = molecular target: T6, Cytochrome P450 2D6; assay: Induction of CYP2D6 at 3 to 30 uM; assay type: ADME
Cytochrome P450 1A2 [31] = molecular target: T1, Cytochrome P450 1A2; assay: Inhibition of CYP1A2; assay type: ADME

T4 sequence (P07333 whole entry): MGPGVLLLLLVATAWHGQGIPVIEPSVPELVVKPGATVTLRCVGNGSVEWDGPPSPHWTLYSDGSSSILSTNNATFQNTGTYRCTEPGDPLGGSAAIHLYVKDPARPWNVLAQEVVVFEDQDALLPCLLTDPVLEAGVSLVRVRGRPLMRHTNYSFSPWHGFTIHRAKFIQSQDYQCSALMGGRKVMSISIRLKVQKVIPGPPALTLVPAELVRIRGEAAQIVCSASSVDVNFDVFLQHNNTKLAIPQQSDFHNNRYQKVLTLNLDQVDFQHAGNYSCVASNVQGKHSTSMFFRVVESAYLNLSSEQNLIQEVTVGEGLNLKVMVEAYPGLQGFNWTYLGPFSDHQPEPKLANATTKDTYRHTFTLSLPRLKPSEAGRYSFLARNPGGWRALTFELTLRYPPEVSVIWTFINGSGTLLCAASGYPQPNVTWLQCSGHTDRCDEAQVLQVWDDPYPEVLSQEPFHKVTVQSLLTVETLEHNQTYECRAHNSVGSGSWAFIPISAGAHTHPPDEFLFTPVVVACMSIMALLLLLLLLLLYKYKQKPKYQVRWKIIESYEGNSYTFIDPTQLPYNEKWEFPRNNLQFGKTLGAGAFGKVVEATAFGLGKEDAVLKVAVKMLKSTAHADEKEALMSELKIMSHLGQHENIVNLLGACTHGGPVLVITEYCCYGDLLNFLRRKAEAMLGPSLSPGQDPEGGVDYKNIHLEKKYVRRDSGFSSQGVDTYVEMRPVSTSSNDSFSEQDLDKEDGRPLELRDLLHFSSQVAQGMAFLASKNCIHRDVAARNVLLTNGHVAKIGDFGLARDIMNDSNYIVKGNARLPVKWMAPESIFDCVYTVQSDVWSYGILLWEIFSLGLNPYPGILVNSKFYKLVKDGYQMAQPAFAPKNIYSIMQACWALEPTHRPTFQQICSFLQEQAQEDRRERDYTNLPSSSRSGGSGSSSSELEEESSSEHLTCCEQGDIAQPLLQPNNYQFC
T6 sequence (P10635 whole entry): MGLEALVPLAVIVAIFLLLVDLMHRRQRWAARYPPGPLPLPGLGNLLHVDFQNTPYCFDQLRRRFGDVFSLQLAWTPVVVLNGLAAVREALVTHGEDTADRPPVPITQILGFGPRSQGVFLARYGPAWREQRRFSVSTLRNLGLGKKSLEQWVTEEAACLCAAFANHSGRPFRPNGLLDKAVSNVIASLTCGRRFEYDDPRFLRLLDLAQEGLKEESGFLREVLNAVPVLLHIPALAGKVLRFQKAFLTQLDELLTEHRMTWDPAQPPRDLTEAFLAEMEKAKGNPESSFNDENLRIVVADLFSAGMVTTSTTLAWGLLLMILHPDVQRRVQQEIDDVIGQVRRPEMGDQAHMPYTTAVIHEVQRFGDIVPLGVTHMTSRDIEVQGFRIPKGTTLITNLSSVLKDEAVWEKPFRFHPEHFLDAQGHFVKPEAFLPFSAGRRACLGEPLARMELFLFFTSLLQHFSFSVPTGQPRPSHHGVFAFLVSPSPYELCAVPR
T3 sequence (P10721 whole entry): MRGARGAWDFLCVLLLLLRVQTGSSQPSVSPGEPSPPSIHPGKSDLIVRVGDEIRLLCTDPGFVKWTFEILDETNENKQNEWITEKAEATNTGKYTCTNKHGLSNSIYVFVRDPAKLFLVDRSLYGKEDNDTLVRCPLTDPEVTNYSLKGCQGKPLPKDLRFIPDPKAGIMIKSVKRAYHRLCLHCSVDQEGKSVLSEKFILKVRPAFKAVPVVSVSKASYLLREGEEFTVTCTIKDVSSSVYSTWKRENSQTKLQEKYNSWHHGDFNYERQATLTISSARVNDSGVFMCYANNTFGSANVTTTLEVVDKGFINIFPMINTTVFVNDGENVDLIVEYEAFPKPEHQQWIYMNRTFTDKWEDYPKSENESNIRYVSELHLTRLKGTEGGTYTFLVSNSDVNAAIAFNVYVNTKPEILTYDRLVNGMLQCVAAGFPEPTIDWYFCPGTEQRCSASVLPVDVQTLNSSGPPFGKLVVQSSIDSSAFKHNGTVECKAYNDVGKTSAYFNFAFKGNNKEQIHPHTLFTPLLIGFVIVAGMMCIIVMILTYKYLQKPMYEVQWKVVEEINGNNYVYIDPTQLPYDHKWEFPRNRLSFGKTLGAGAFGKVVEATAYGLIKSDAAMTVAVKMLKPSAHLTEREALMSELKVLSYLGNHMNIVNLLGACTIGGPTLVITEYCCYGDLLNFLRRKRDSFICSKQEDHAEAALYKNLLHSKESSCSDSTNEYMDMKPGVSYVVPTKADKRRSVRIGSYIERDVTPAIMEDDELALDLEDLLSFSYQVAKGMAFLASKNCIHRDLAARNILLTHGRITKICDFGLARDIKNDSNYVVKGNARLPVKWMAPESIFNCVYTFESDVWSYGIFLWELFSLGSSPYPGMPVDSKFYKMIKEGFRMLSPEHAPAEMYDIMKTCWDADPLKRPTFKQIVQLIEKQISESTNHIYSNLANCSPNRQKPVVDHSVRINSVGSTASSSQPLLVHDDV
Chain of Cytochrome P450 2C9 (P11712 whole entry): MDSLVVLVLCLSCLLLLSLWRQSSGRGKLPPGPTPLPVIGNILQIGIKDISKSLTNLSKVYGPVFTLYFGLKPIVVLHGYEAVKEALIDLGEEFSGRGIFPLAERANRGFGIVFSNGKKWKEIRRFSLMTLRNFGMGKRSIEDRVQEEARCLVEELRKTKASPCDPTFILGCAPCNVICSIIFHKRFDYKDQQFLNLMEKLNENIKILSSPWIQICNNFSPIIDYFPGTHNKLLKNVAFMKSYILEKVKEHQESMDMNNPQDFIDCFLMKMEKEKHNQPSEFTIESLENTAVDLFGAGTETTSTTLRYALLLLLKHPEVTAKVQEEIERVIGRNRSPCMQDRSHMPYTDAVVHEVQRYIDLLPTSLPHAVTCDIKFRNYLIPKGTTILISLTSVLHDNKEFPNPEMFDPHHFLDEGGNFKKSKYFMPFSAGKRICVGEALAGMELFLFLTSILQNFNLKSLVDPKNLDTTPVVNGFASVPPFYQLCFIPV
Chain of Cytochrome P450 2C19 (P33261 whole entry): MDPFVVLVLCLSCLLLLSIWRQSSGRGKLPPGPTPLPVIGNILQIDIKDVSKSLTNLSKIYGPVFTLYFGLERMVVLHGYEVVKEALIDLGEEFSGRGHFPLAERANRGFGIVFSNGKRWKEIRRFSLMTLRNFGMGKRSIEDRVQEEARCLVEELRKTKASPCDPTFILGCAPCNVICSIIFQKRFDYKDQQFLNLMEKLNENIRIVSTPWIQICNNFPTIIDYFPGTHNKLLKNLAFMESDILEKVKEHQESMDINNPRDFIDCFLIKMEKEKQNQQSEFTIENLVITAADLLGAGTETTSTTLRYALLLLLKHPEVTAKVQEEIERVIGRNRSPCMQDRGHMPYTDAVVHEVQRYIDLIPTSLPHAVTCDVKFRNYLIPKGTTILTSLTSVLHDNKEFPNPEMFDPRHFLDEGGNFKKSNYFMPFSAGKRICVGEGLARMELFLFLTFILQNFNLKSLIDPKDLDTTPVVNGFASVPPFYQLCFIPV
Chain of Cytochrome P450 3A4 (P08684 whole entry): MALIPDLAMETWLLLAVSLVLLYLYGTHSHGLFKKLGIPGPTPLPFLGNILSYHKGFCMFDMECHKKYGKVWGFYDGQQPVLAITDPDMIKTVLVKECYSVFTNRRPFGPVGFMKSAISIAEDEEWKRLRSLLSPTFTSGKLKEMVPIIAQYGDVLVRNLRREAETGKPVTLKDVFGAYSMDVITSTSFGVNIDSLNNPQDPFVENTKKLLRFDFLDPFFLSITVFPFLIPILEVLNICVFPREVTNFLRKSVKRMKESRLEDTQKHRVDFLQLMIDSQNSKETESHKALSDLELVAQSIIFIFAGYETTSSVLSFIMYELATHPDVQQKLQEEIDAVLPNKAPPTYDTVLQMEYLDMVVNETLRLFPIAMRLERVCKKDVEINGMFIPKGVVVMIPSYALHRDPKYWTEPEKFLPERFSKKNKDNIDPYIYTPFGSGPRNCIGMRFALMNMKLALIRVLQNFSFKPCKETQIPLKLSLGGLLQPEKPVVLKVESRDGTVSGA

With CCN1CCC(Cc2ccc(C(=O)Nc3ccc(NC(=O)Nc4cc(C(C)(C)C)on4)cc3)nc2)CC1 the bioavailability [1] was 12%, the clearance [2] was 24 mL/min/kg and the AUC [3] was 1.4 µM·h.

CC(C)(C)c1cc(NC(=O)Nc2ccc(NC(=O)c3ccc(OC4CCNCC4)cn3)cc2)no1 showed an F (Rattus norvegicus [4]) of 1% and an AUC (Rattus norvegicus [5]) of 1.6 µM·h.

CC(C)(C)c1cc(NC(=O)Nc2ccc(NC(=O)c3ccc(OC4CCN(C(C)(C)C)CC4)cn3)cc2)no1 gave a bioavailability [1] of 22%, a clearance [2] of 15 mL/min/kg and an AUC [3] of 5 µM·h.

With CCN1C(C)(C)CC(Oc2ccc(C(=O)Nc3ccc(NC(=O)Nc4cc(C(C)(C)C)on4)cc3)nc2)CC1(C)C [listing 1 of 2 here] the Activity (MV4-11 [6]) was “Active”, the inhibition (Mus musculus [7]) was “Active” and the inhibition (Mus musculus [8]) was “Active”. For the same compound, the inhibition (NFS-60) was “Dose-dependent effect” and the Activity (MV4-11 [9]) was “Active”.

For CCN1C(C)(C)CC(Oc2ccc(C(=O)Nc3ccc(NC(=O)Nc4cc(C(C)(C)C)on4)cc3)nc2)CC1(C)C [listing 2 of 2 here], the Activity (Mus musculus [10]) was “Non-toxic”, the Activity (Cytochrome P450 1A2 [11]) was “Not Active” and the Kd [12] was 1.3 nM. For the same compound, the Activity (Cytochrome P450 3A4) was “Not Active”, the AUC [13] was 56.4 µM·h and the inhibition in vivo at 30 mg/kg [14] was 79%. The Activity (Rattus norvegicus [15]) was “Non-toxic”, the Activity (Rattus norvegicus [16]) was “Toxic” and the IC50 (Cytochrome P450 2C9) was greater than 40000 nM. The Activity (Rattus norvegicus [17]) was “Non-toxic”, the Kd [18] was 1 nM and the inhibition in vivo at 10 mg/kg [19] was 54%. The bioavailability [1] was 44%, the clearance [2] was 14 mL/min/kg and the IC50 [20] was 1.2 nM. The Kd [21] was 1 nM, the IC50 (Cytochrome P450 2C19) was greater than 40000 nM and the Activity (Mus musculus [22]) was “Non-toxic”. It also gave an IC50 [23] of 10.5 nM, an IC50 [24] of 2 nM and an IC50 (Cytochrome P450 2D6 [25]) greater than 40000 nM. The Kd [26] was 0.5 nM, the Kd [27] was 1.57 nM and the AUC [3] was 10 µM·h. The inhibition in vivo at 3 mg/kg [28] was 29%, the IC50 [29] was 7.7 nM and the Activity (Cytochrome P450 2D6 [30]) was “Not Active”. For the same compound, the IC50 (Cytochrome P450 1A2 [31]) was greater than 40000 nM.
